Measurements taken from patent US12551468B2, “Pharmaceutical composition for oral administration, for treatment of liver cancer” (ETNOVA Therapeutics Corp., priority 2019, dated 2026).

How the values were obtained:
[1] = test system: human liver cancer cell line HepG2; test: Anticancer effect test in liver cancer animal model using human liver cancer cell line (Example 2); type: in vivo, nude mouse; settings: for relative size of tumor isolated 21 days after administration: compound 100 mg/kg P.O., Cisplatin 5 mg/kg IV, twice a week for 3 weeks, FIG. 2
Experimental: (§1) The human liver cancer cell line HepG2 was grown in Eagle's Minimum Essential Medium (EMEM) medium supplemented with 10% Fetal bovine serum (FBS) and 1% Antibiotic-Antimycotic. For liver cancer animal model production, stabilized cells were suspended in a 1:1 mixture (100 μL) of EMEM serum free media: Matrigel at a density of 5×10^6 cells/animal and then the suspension was transplanted subcutaneously to a flank of a nude mouse (5 weeks old, male). We have waited for the tumor formation for 3 weeks. When the tumor volume reached 200 mm^3, the body weight and the tumor size were measured and then the mice were randomly grouped. The mice were divided into 3 groups. Saline alone was administered intravenously to each group (Saline administered group (n=6, IV)). Cisplatin adjusted to pH 4 using NaCl aqueous solution, HCl aqueous solution, or NaOH aqueous solution was administered intravenously thereto (Cisplatin administered group (n=6, IV)). The compound according to the present disclosure (compound of Chemical Formula 1-1) dissolved in saline was forcibly administered orally thereto (administered group according to the present disclosure (n=6, P.O.)). The administration intervals and frequencies of administration to the groups were equal to each other. The administration was performed once a day and twice a week for 3 weeks. The dosage of Cisplatin (intravenous administration) was 5 mg/kg. The composition was orally administered at 100 mg/kg to the administered group according to the present disclosure.
The mice were anesthetized immediately prior to the administration, and then the body weight thereof was measured to observe the change in the body weight. The change in the tumor size over time was observed based on a following equation.
Average tumor volume calculation equation: V (mean tumor volume)=(A×B×B)/2
(In the above equation, A denotes a length of a long side and B denotes a length of a short side).
Further, on 21 days after the administration, a start time of tumor necrosis in the saline group was designated as an end point of the experiment. All nude mice participating in the experiment were sacrificed. Only the tumor was isolated from the flank thereof, and the relative size of the tumor was photographed. In FIG. 2, grayish-white dots mean that all tumors have disappeared and an individual has a tumor which may not be distinguished.

[2] = Comparative study of blood and histological toxicity (serum GOT/GPT activity, Sirius red staining of liver and kidney); type: in vivo; settings: oral administration, end of Example 2 experiment; FIG. 3 and FIG. 4
Experimental: Toxicity was analyzed based on activity assay of GOT and GPT. A specific experimental method is as follows: GOT and GPT activity in serum was measured using a reagent kit (Asan Pharmaceutical) prepared according to a method of Reitman-Frankel. At an end of the experiment, blood was collected from an abdominal vena cava of the mice to which the compound was administered, and serum was separated therefrom. When a substrate solution was added to the serum which in turn was heated for a certain period of time, oxalacetate and glutamic acid were generated from the substrate solution for GOT measurement (aspartate, a-ketoglutarate mixture) due to the action of serum GOT, while under GPT action, pyruvate and glutamic acid were generated from the substrate solution for GPT measurement (Alanine, a-ketoglutarate mixture). Then, […] was added thereto such that 2,4-dinitrophenylhydrazone of oxaloacetate or pyruvate was produced, and NaOH was added thereto to develop color, and then absorbance was measured (505 nm). The activity of GOT and GPT in serum was calculated from a standard calibration curve as prepared separately.
At the end of the experiment, the blood of nude mice participating in the experiment was perfused and livers and kidneys were obtained. The tissues were fixed in 4% paraformaldehyde. […]

[3] = test system: human liver cancer cell line HepG2; test: Comparison of survival rate in the liver cancer animal model (Example 4); type: in vivo, nude mouse; settings: animal model test of Example 2; FIG. 5
Experimental: as §1, with “The composition was orally administered at 100 mg/kg to the administered group according to the present disclosure.” left out

Human liver cancer cells = test: Comparative test of anticancer effect according to administration route change (Example 5); type: in vivo; settings: 100 mg/kg P.O. vs 5 mg/kg I.V., twice a week for 4 weeks
Experimental: Human liver cancer cells were suspended in a 1:1 mixture (100 μL) of EMEM serum free media: Matrigel at a density of 2×10^6 cells/animal and the suspension was transplanted subcutaneously into the flank of nude mice (5 weeks old, male). We have waited for the tumor formation for 4 weeks. When the tumor volume reached 100 mm^3, the body weight and the tumor size were measured and then the mice were randomly grouped. The mice were divided into 4 groups. Saline alone was administered intravenously to each group (Saline administered group (n=6, I.V.)). Cisplatin adjusted to pH 4 using NaCl aqueous solution, HCl aqueous solution, or NaOH aqueous solution was administered intravenously thereto (Cisplatin administered group (n=5, I.V.)). […] The mice were anesthetized immediately prior to administration, and the body weight was measured to observe the change in the body weight. The changes in the body weight and the tumor size for 4 weeks were measured in the same manner as in Example 1 above, and the results are shown in FIG. 6. In the same manner as in Example 2, the tumor was separated and the relative size of the tumor was measured, and the photographed tissue is shown in FIG. 7.

[4] = 100 mg/kg P.O., once a day twice a week for 3 weeks, FIG. 1

Row | SMILES | change in body weight for 3 weeks [1, 4] | change in tumor size for 3 weeks [1, 4] | relative size of tumor isolated 21 days after administration [1] | toxicity in the liver and kidneys (serum GOT and GPT activity, tissue histology) [2] | survival over time after drug administration [3] | toxicity based on the change in body weight, oral compared to intravenous administration (Human liver cancer cells; FIG. 6) | anticancer effect (tumor size, isolated tumor at 28 days, survival), oral compared to intravenous administration (Human liver cancer cells; FIGS. 6, 7, 8)
1 | NCC(N)C(=O)Nc1ccc(-c2nc3ccccc3s2)cc1 (centres unmarked) [Chemical Formula 1-1] | no decrease in the body weight | the tumor disappeared or the size thereof was significantly reduced | tumors significantly decrease or completely disappear | significantly lowered | the survival was higher | the toxicity based on the change in body weight may be lowered | the anticancer effect may be significantly better
2 | N.N.[Cl][Pt][Cl] [Cisplatin, cisplatin, reference compound] |  |  | tumor cells remain |  |  |  | 
